Data taken from US6403116B1, “Coenzyme Q10 formulation” (Triarco Inductries, Inc., priority 2000, dated 2002).
Where two headings read alike, the source gives them in different places.

What was measured:
[1] = Coenzyme Q10 added separately to aqueous solutions of the other composition ingredients; format: physicochemical; settings: 5 mg coenzyme Q10 added to 100 mL of 1%, 2.5% and 5% aqueous solutions of all ingredients except coenzyme Q10
Description: To test this theory a 1%, 2.5% and 5% aqueous solutions of the all the composition ingredients except coenzyme Q10 were made in 100 mL volumetric flasks. A 5 mg aliquot of coenzyme Q10 was then separately added to each of the flasks and shaken.

[2] = as disclosed in WO 95/05164; cited from earlier work
[3] = Water solubility of coenzyme Q10 alone; format: physicochemical

water solubility [3]: not water soluble at any level
SMILES: COC1=C(OC)C(=O)C(C/C=C(\C)CC/C=C(\C)CC/C=C(\C)CC/C=C(\C)CC/C=C(\C)CC/C=C(\C)CC/C=C(\C)CC/C=C(\C)CC/C=C(\C)CCC=C(C)C)=C(C)C1=O [coenzyme Q10, 2,3-dimethoxy-5-methyl-6-decaprenyl-1,4-benzoquinone]
behaviour in ultra sound bath [1]: dispersed then settled to the bottom of the flask
dissolution or dispersion after shaking [1]: did not go into solution or form a dispersion
water solubility [2]: practically insoluble in water
